Reference: US9216973B2, “Insecticidal compounds” (Syngenta Participations AG, priority 2008, dated 2015)

Tests used:
Type in all cases: in vivo
[1] = system: Plutella xylostella (Diamond back moth); test: Plutella xylostella larvae test on artificial diet; details: for pest or weed control at 200 ppm: 144 h, 200 ppm (concentration in well 18 ppm), artificial diet, L2 larvae, larval mortality and growth regulation after 6 days; for effect on mortality, feeding behavior, or growth regulation: same protocol, 200 ppm
Method: (§1) This Example illustrates the insecticidal and acaricidal properties of compounds of formula (I). The tests were performed as follows:
(§2) Cotton leaf discs were placed on agar in a 24-well microtiter plate and sprayed with test solutions at an application rate of 200 ppm. After drying, the leaf discs were infested with 5 L1 larvae. The samples were checked for mortality, feeding behavior, and growth regulation 3 days after treatment (DAT). The following compound gave at least 80% control of Spodoptera littoralis: A1, A2, A5, A6, A7, A8, A10, A11, A12, A13, A14, A15, A16, A17, A18, A19, A21, A22, A23, A24, A25, A30, A31, A32, A33, A34, A35, A39, A40, A41 A42, A43, A44, A45, A46, A47, A48, A49, A50, A51, A53, A54, A55, A59, A60, A61, A62. Heliothis virescens (Tobacco budworm): Eggs (0-24 h old) were placed in 24-well microtiter plate on artificial diet and treated with test solutions at an application rate of 200 ppm (concentration in well 18 ppm) by pipetting. After an incubation period of 4 days, samples were checked for egg mortality, larval mortality, and growth regulation. The following compound gave at least 80% control of Heliothis virescens: A1, A2, A3, A4, A5, A6, A7, A8, A10, A11, A12, A13, A14, A15, A16, A18, A19, A21, A22, A24, A25, A30, A31, A32, A33, A34, A35, A37, A38, A39, A40, A42, A43, A44, A45, A46, A47, A48, A49, A50, A51, A55, AA57, A58, A59, A60, A61, A62. Plutella xylostella (Diamond back moth): 24-well microtiter plate (MTP) with artificial diet was treated with test solutions at an application rate of 200 ppm (concentration in well 18 ppm) by pipetting. After drying, the MTP's were infested with L2 larvae (7-12 per well). After an incubation period of 6 days, samples were checked for larval mortality and growth regulation. The following compound gave at least 80% control of Plutella xylostella: A1, A2, A5, A6, A7, A8, A9, A10, A11, A12, A13, A14, A15, A16, A17, A18, A19, A20, A21, A22, A24, A25, A30, A31, A32, A33, A34, A35, A37, A38, A39, A40, A42, A43, A44, A45, A46, A47, A48, A49, A50, A51, A52, A53, A54, A55, A57, A58, A59, A60, A61, A62, B3. Diabrotica balteata (Corn root worm): A 24-well microtiter plate (MTP) with artificial diet was treated with test solutions at an application rate of 200 ppm (concentration in well 18 ppm) by pipetting. After drying, the MTP's were infested with L2 larvae (6-10 per well). After an incubation period of 5 days, samples were checked for larval mortality and growth regulation. The following compound gave at least 80% control of Diabrotica balteata: A1, A2, A5, A6, A7, A10, A11, A12, A13, A14, A15, A16, A17, A18, A19, A21, A22, A24, A25, A30, A31, A32, A33, A34, A35, A38, A39, A40, A42, A43, A44, A45, A46, A47, A48, A49, A50, A59, A60, A61, A62. Thrips tabaci (Onion thrips): Sunflower leaf discs were placed on agar in a 24-well microtiter plate and sprayed with test solutions at an application rate of 200 ppm. After drying, the leaf discs were infested with an […] population of mixed ages. After an incubation period of 7 days, samples were checked for mortality. The following compounds gave at least 80% control of Thrips tabaci: A1, A2, A5, A6, A7, A8, A10, A12, A13, A14, A15, A16, A17, A18, A19, A21, A24, A25, A30, A31, A32, A33, A34, A35, A39, A42, A43, A44, A45, A46, A47, A48, A49, A50, A51, A53, A54, A57, A58, A59, A60, A61, A62. Tetranychus urticae (Two-spotted spider mite): Bean leaf discs on agar in 24-well microtiter plates were sprayed with test solutions at an application rate of 200 ppm. After drying, the leaf discs are infested with mite populations of mixed ages. 8 days later, discs are checked for egg mortality, larval mortality, and adult mortality. The following compound gave at least 80% control of Tetranychus urticae: A1, A2, A4, A5, A6, A7, A8, A10, A11, A12, A13, A14, A15, A16, A17, A18, A19, A20, A21, A22, A30, A31, A32, A33, A34, A35, A39, A40, A41, A42, A43, A44, A45, A46, A47, A48, A49, A50, A51, A53, A54, A55, A57, A59, A60, A61, A62.

[2] = system: Diabrotica balteata (Corn root worm); test: Diabrotica balteata larvae test on artificial diet; details: for pest or weed control at 200 ppm: 120 h, 200 ppm (concentration in well 18 ppm), artificial diet, L2 larvae, larval mortality and growth regulation after 5 days; for effect on mortality, feeding behavior, or growth regulation: same protocol, 200 ppm
Method: as §1, §2

[3] = system: Tetranychus urticae (Two-spotted spider mite); test: Tetranychus urticae bean leaf disc spray test; details: for pest or weed control at 200 ppm: foliar, 192 h, 200 ppm spray on bean leaf discs, mite populations of mixed ages, egg, larval and adult mortality 8 days later, read-out: control of Tetranychus urticae; for effect on mortality, feeding behavior, or growth regulation: same protocol, 200 ppm
Method: as §1, §2

[4] = system: Heliothis virescens (Tobacco budworm); test: Heliothis virescens egg test on artificial diet; details: for pest or weed control at 200 ppm: 96 h, 200 ppm (concentration in well 18 ppm), eggs 0-24 h old on artificial diet, egg mortality, larval mortality, growth regulation after 4 days, read-out: control of Heliothis virescens; for effect on mortality, feeding behavior, or growth regulation: same protocol, 200 ppm
Method: as §1, §2

[5] = system: Thrips tabaci (Onion thrips); test: Thrips tabaci sunflower leaf disc spray test; details: for pest or weed control at 200 ppm: foliar, 168 h, 200 ppm spray on sunflower leaf discs, population of mixed ages, mortality after 7 days; for effect on mortality, feeding behavior, or growth regulation: same protocol, 200 ppm
Method: as §1, §2

| Compound | pest or weed control at 200 ppm [1] | pest or weed control at 200 ppm [2] | pest or weed control at 200 ppm [3] | pest or weed control at 200 ppm [4] | pest or weed control at 200 ppm [5] | effect on mortality, feeding behavior, or growth regulation [1] | effect on mortality, feeding behavior, or growth regulation [2] | effect on mortality, feeding behavior, or growth regulation [3] | effect on mortality, feeding behavior, or growth regulation [4] | effect on mortality, feeding behavior, or growth regulation [5] |
| --- | --- | --- | --- | --- | --- | --- | --- | --- | --- | --- |
| Cc1cc(C2=NCC(c3cc(Cl)cc(Cl)c3)(C(F)(F)F)C2)ccc1C(=O)NC1(C)CSC1 (centres unmarked) [A47] | ≥ 80% | ≥ 80% | ≥ 80% | ≥ 80% | ≥ 80% |  |  |  |  |  |
| Cc1cc(C2=NN(C)C(c3cc(Cl)cc(Cl)c3)(C(F)(F)F)C2)ccc1C(=O)NC1C[S+]([O-])C1 (centres unmarked) [A13] | ≥ 80% | ≥ 80% | ≥ 80% | ≥ 80% | ≥ 80% |  |  |  |  |  |
| Cc1cc(C2CC(c3cc(Cl)cc(Cl)c3)(C(F)(F)F)ON2C)ccc1C(=O)NC1C[S+]([O-])C1 (centres unmarked) [A18] | ≥ 80% | ≥ 80% | ≥ 80% | ≥ 80% | ≥ 80% |  |  |  |  |  |
| Cc1cc(C2=NCC(c3cc(Cl)cc(Cl)c3)(C(F)(F)F)C2)ccc1C(=O)NC1C[S+]([O-])C1 (centres unmarked) [A48] | ≥ 80% | ≥ 80% | ≥ 80% | ≥ 80% | ≥ 80% |  |  |  |  |  |
| Cc1cc(C2=NOC(c3cc(Cl)cc(Cl)c3)(C(F)(F)F)C2F)ccc1C(=O)NC1C[S+]([O-])C1 (centres unmarked) [A62] | ≥ 80% | ≥ 80% | ≥ 80% | ≥ 80% | ≥ 80% |  |  |  |  |  |
| Cc1cc(C2=NOC(c3cc(Cl)cc(Cl)c3)(C(F)(F)F)C2F)ccc1C(=O)NC1(C)CSC1 (centres unmarked) [A60] | ≥ 80% | ≥ 80% | ≥ 80% | ≥ 80% | ≥ 80% |  |  |  |  |  |
| O=C(NC1C[S+]([O-])C1)c1ccc(C2=NOC(c3cc(Cl)cc(Cl)c3)(C(F)(F)F)C2)c2ccccc12 (centres unmarked) [A16] | ≥ 80% | ≥ 80% | ≥ 80% | ≥ 80% | ≥ 80% |  |  |  |  |  |
| Cc1cc(C2=NOC(c3cc(Cl)cc(Cl)c3)(C(F)(F)F)C2Cl)ccc1C(=O)NC1C[S+]([O-])C1 (centres unmarked) [A34] | ≥ 80% | ≥ 80% | ≥ 80% | ≥ 80% | ≥ 80% |  |  |  |  |  |
| Cc1cc(C2=NOC(c3cc(Cl)cc(Cl)c3)(C(F)(F)F)C2Br)ccc1C(=O)NC1(C)CSC1 (centres unmarked) [A5] | ≥ 80% | ≥ 80% | ≥ 80% | ≥ 80% | ≥ 80% |  |  |  |  |  |
| Cc1cc(N2CC(c3cc(Cl)cc(Cl)c3)(C(F)(F)F)OC2=O)ccc1C(=O)NC1C[S+]([O-])C1 (centres unmarked) [A10] | ≥ 80% | ≥ 80% | ≥ 80% | ≥ 80% | ≥ 80% |  |  |  |  |  |
| Cc1nc2c(C3=NOC(c4cc(Cl)cc(Cl)c4)(C(F)(F)F)C3)ccc(C(=O)NC3CSC3)c2o1 (centres unmarked) [A29] |  |  |  |  |  | little or no effect | little or no effect | little or no effect | little or no effect | little or no effect |
| Cc1cc(C2=NOC(c3cc(Cl)cc(Cl)c3)(C(F)(F)F)/C2=N/O)ccc1C(=O)NC1(C)CSC1 (centres unmarked) [A56] |  |  |  |  |  | little or no effect | little or no effect | little or no effect | little or no effect | little or no effect |
| Cc1cc(C2=NOC(c3cc(Cl)cc(Cl)c3)(C(F)(F)F)C2Cl)ccc1C(=O)NC1CS(=O)(=O)C1 (centres unmarked) [A32] | ≥ 80% | ≥ 80% | ≥ 80% | ≥ 80% | ≥ 80% |  |  |  |  |  |
| Cc1cc(C2=NOC(c3cc(Cl)cc(Cl)c3)(C(F)(F)F)C2F)ccc1C(=O)NC1CSC1 (centres unmarked) [A61] | ≥ 80% | ≥ 80% | ≥ 80% | ≥ 80% | ≥ 80% |  |  |  |  |  |
| O=C(NC1CS(=O)(=O)C1)c1ccc(C2=NOC(c3cc(Cl)cc(Cl)c3)(C(F)(F)F)C2Br)c2ccccc12 (centres unmarked) [A42] | ≥ 80% | ≥ 80% | ≥ 80% | ≥ 80% | ≥ 80% |  |  |  |  |  |
| Cc1cc(C2=NCC(c3cc(Cl)cc(Cl)c3)(C(F)(F)F)C2)ccc1C(=O)NC1CS(=O)(=O)C1 (centres unmarked) [A46] | ≥ 80% | ≥ 80% | ≥ 80% | ≥ 80% | ≥ 80% |  |  |  |  |  |
| Cc1cc(C2=NOC(c3cc(Cl)cc(Cl)c3)(C(F)(F)F)C2F)ccc1C(=O)NC1CS(=O)(=O)C1 (centres unmarked) [A59] | ≥ 80% | ≥ 80% | ≥ 80% | ≥ 80% | ≥ 80% |  |  |  |  |  |
| CC1(NC(=O)c2cccc3c(C4=NOC(c5cc(Cl)cc(Cl)c5)(C(F)(F)F)C4)cccc23)CSC1 (centres unmarked) [A36] |  |  |  |  |  | little or no effect | little or no effect | little or no effect | little or no effect | little or no effect |
| Cc1cc(C2=NN(C)C(c3cc(Cl)cc(Cl)c3)(C(F)(F)F)C2)ccc1C(=O)NC1(C)CSC1 (centres unmarked) [A12] | ≥ 80% | ≥ 80% | ≥ 80% | ≥ 80% | ≥ 80% |  |  |  |  |  |
